Earlier results on five molecules are cited in patent publication US20220000750A1, “THE PROCESS FOR THE PREPARATION AND USE OF HAIR TREATMENT COMPOSITIONS CONTAINING ORGANIC C1-C6 ALKOXY SILANES” (Henkel AG & Co. KGaA, priority 2019, published 2022).

Structures are written as SMILES.

The conditions of the data set: 25° C.

With `CCN(Cc1cccc(S(=O)(=O)[O-])c1)c1ccc(C(=C2C=CC(=[N+](CC)Cc3cccc(S(=O)(=O)[O-])c3)C=C2)c2ccccc2S(=O)(=O)[O-])cc1.[Na+].[Na+]` [Acid Blue 9], the solubility in water result is on record as “more than 20 % by weight”. On to `O=C([O-])C1=NN(c2ccc(S(=O)(=O)[O-])cc2)C(=O)C1N=Nc1ccc(S(=O)(=O)[O-])cc1.[Na+].[Na+].[Na+]` (centres unmarked) [Acid Yellow 23, trisodium salt of 4,5-dihydro-5-oxo-1-(4-sulfophenyl)-4-((4-sulfophenyl)azo)-1H-pyrazole-3-carboxylic acid], for which the “solubility in water (in words)” value is on record as “highly soluble”. Consider `O=S(=O)([O-])c1ccc(N=Nc2c(O)ccc3ccccc23)cc1.[Na+]` [Acid Orange 7, sodium salt of 4-[(2-hydroxy-1-naphthyl)azo]benzene sulphonate], for which the solubility in water result was “more than 7 g/L”. As for `Nc1cc(S(=O)(=O)[O-])cc2cc(S(=O)(=O)[O-])c(N=Nc3ccccc3)c(O)c12.[Na+].[Na+]` [Acid Red 33, diantrium salt of 5-amino-4-hydroxy-3-(phenylazo)-naphthalene-2,7-disulphonate], the solubility in water was 2500 µg/mL.

In the case of `O=C([O-])c1c(Cl)c(Cl)c(Cl)c(Cl)c1-c1c2c(Br)cc(=O)c(Br)c-2oc2c(Br)c(O)cc(Br)c12.O=C([O-])c1c(Cl)c(Cl)c(Cl)c(Cl)c1-c1c2c(Br)cc(=O)c(Br)c-2oc2c(Br)c(O)cc(Br)c12.[Na+].[Na+]` [Acid Red 92, disodium salt of 3,4,5,6-tetrachloro-2-(1,4,5,8-tetrabromo-6-hydroxy-3-oxoxanthen-9-yl)benzoic acid], the solubility in water entry is “greater than 10 g/L”.
